According to patent US10131652B2, “Pyrimidinyloxy benzene derivatives as herbicides” (E. I. DU PONT DE NEMOURS AND COMPANY, priority 2014, dated 2018):
Where two headings read alike, the source gives them in different places.

Key:
Type in all cases: in vivo
[1] = tested on: velvetleaf (Abutilon theophrasti); assay: Test D pre-/postemergence plant response; conditions: Abutilon theophrasti; for pest or weed control at 16 g/ha: 16 g ai/ha; for pest or weed control at 31 g/ha: 31 g ai/ha; for pest or weed control at 62 g/ha: 62 g ai/ha; for pest or weed control at 125 g/ha: 125 g ai/ha
Procedure, shortened: (§1)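 Test chemicals were formulated in a non-phytotoxic solvent mixture containing surfactant and applied either preemergence to seeds in loam–sand soil or postemergence to plants 2 to 18 cm tall (1- to 4-leaf stage). Response was rated visually against controls after 13 to 15 days, from 0 (none) to 100 (complete control).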

[2] = tested on: winter wheat (Triticum aestivum); assay: Test D pre-/postemergence plant response; conditions: Triticum aestivum; for plant injury at 16 g/ha: 16 g ai/ha; for plant injury at 31 g/ha: 31 g ai/ha; for plant injury at 62 g/ha: 62 g ai/ha; for plant injury at 125 g/ha: 125 g ai/ha
Procedure, shortened: as §1

[3] = tested on: yellow nutsedge (Cyperus esculentus); assay: Test D pre-/postemergence plant response; conditions: Cyperus; for pest or weed control at 16 g/ha: 16 g ai/ha; for pest or weed control at 31 g/ha: 31 g ai/ha; for pest or weed control at 62 g/ha: 62 g ai/ha; for pest or weed control at 125 g/ha: 125 g ai/ha
Procedure, shortened: as §1

[4] = tested on: chickweed (common chickweed, Stellaria media); assay: Test D postemergence plant response
Description: (§2) At the same time, plants selected from these crop and weed species and also kochia (Kochia scoparia), wild oat (Avena fatua), and chickweed (common chickweed, Stellaria media) were planted in pots containing Redi-Earth® planting medium (Scotts Company, 14111 Scottslawn Road, Marysville, Ohio 43041) comprising spaghnum peat moss, vermiculite, wetting agent and starter nutrients and treated with postemergence applications of test chemicals formulated in the same manner. Plants ranged in height from 2 to 18 cm (1- to 4-leaf stage) for postemergence treatments. Treated plants and controls were maintained in a greenhouse for 13 to 15 days, after which time all species were compared to controls and visually evaluated. Plant response ratings, summarized in Table D, are based on a scale of 0 to 100 where 0 is no effect and 100 is complete control. A dash (-) response means no test result.

kochia (Kochia scoparia) = assay: Test D postemergence plant response
Description: as §2

wild oat (Avena fatua) = assay: Test D postemergence plant response
Description: as §2

[5] = pre-emergence, Preemergence, scale 0 to 100 (0 no effect, 100 complete control), read-out: Plant response rating, Velvetleaf
[6] = pre-emergence, Preemergence, scale 0 to 100 (0 no effect, 100 complete control), read-out: Plant response rating, Wheat
[7] = pre-emergence, Preemergence, scale 0 to 100 (0 no effect, 100 complete control), read-out: Plant response rating, Nutsedge, Yellow

FC(F)(F)c1cc(-c2ccccc2Oc2ncc(Cl)cn2)no1 [Compound 200, 5-chloro-2-[2-[5-(trifluoromethyl)-3-isoxazolyl]phenoxy]pyrimidine]
pest or weed control at 16 g/ha ([1]; post-emergence, Postemergence, read-out: Plant response rating (scale 0 to 100), Velvetleaf): 30%
pest or weed control at 31 g/ha ([1]; post-emergence, Postemergence, scale 0 to 100 (0 no effect, 100 complete control), read-out: Velvetleaf plant response rating): 60%
pest or weed control at 62 g/ha ([1]; post-emergence, Postemergence, scale 0 to 100, 0 no effect, 100 complete control, read-out: Velvetleaf plant response rating): 70%
pest or weed control at 125 g/ha ([1]; post-emergence, Postemergence, scale 0 to 100, 0 no effect, 100 complete control, read-out: Plant response rating, Velvetleaf): 75%
pest or weed control at 125 g/ha ([1]; pre-emergence, Preemergence, read-out: Plant response rating (scale 0 to 100), Velvetleaf): 100%
pest or weed control at 16 g/ha [1, 5]: 100%
pest or weed control at 31 g/ha [1, 5]: 100%
pest or weed control at 62 g/ha [1, 5]: 100%
plant injury at 16 g/ha ([2]; post-emergence, Postemergence, read-out: Plant response rating (scale 0 to 100), Wheat): 5%
plant injury at 31 g/ha ([2]; post-emergence, Postemergence, scale 0 to 100 (0 no effect, 100 complete control), read-out: Wheat plant response rating): 10%
plant injury at 62 g/ha ([2]; post-emergence, Postemergence, scale 0 to 100, 0 no effect, 100 complete control, read-out: Wheat plant response rating): 25%
plant injury at 125 g/ha ([2]; post-emergence, Postemergence, scale 0 to 100, 0 no effect, 100 complete control, read-out: Plant response rating, Wheat): 20%
plant injury at 125 g/ha ([2]; pre-emergence, Preemergence, read-out: Plant response rating (scale 0 to 100), Wheat): 40%
plant injury at 16 g/ha [2, 6]: 0%
plant injury at 31 g/ha [2, 6]: 5%
plant injury at 62 g/ha [2, 6]: 20%
pest or weed control at 16 g/ha ([3]; post-emergence, Postemergence, read-out: Plant response rating (scale 0 to 100), Nutsedge, Yellow): 5%
pest or weed control at 31 g/ha ([3]; post-emergence, Postemergence, scale 0 to 100 (0 no effect, 100 complete control), read-out: Nutsedge, Yellow plant response rating): 5%
pest or weed control at 62 g/ha ([3]; post-emergence, Postemergence, scale 0 to 100, 0 no effect, 100 complete control, read-out: Nutsedge, Yellow plant response rating): 5%
pest or weed control at 125 g/ha ([3]; post-emergence, Postemergence, scale 0 to 100, 0 no effect, 100 complete control, read-out: Plant response rating, Nutsedge, Yellow): 15%
pest or weed control at 125 g/ha ([3]; pre-emergence, Preemergence, read-out: Plant response rating (scale 0 to 100), Nutsedge, Yellow): 15%
pest or weed control at 16 g/ha [3, 7]: 0%
pest or weed control at 31 g/ha [3, 7]: 0%
pest or weed control at 62 g/ha [3, 7]: 0%
Plant response rating (scale 0 to 100), Chickweed ([4]; 16 g ai/ha): 60
pest or weed control at 31 g/ha ([4]; Stellaria media, post-emergence, 31 g ai/ha, scale 0 to 100 (0 no effect, 100 complete control), read-out: Chickweed plant response rating): 95%
pest or weed control at 62 g/ha ([4]; Stellaria media, post-emergence, 62 g ai/ha, scale 0 to 100, 0 no effect, 100 complete control, read-out: Plant response rating, Chickweed): 100%
pest or weed control at 125 g/ha ([4]; Stellaria media, post-emergence, 125 g ai/ha, scale 0 to 100, 0 no effect, 100 complete control, read-out: Plant response rating, Chickweed): 100%
Plant response rating (scale 0 to 100), Kochia (kochia (Kochia scoparia); 16 g ai/ha): 95
pest or weed control at 31 g/ha (kochia (Kochia scoparia); Bassia scoparia, post-emergence, 31 g ai/ha, scale 0 to 100 (0 no effect, 100 complete control), read-out: Kochia plant response rating): 100%
pest or weed control at 62 g/ha (kochia (Kochia scoparia); Bassia scoparia, post-emergence, 62 g ai/ha, scale 0 to 100, 0 no effect, 100 complete control, read-out: Plant response rating, Kochia): 100%
pest or weed control at 125 g/ha (kochia (Kochia scoparia); Bassia scoparia, post-emergence, 125 g ai/ha, scale 0 to 100, 0 no effect, 100 complete control, read-out: Plant response rating, Kochia): 100%
Plant response rating (scale 0 to 100), Oat, Wild (wild oat (Avena fatua); 16 g ai/ha): 20
pest or weed control at 31 g/ha (wild oat (Avena fatua); Avena fatua, post-emergence, 31 g ai/ha, scale 0 to 100 (0 no effect, 100 complete control), read-out: Oat, Wild plant response rating): 30%
pest or weed control at 62 g/ha (wild oat (Avena fatua); Avena fatua, post-emergence, 62 g ai/ha, scale 0 to 100, 0 no effect, 100 complete control, read-out: Oat, Wild plant response rating): 30%
pest or weed control at 125 g/ha (wild oat (Avena fatua); Avena fatua, post-emergence, 125 g ai/ha, scale 0 to 100, 0 no effect, 100 complete control, read-out: Plant response rating, Oat, Wild): 55%
